US12433877B2, “Sustained release drug delivery systems and related methods” (Durect Corporation, priority 2021, dated 2025)
Structures can show the parent of a compound that is named as a salt.

Experiments:
[1] = test system: patients undergoing a variety of general surgical procedures; assay: Example 18: general surgical procedures (laparotomy, laparoscopic cholecystectomy, colectomy), pain and opioid use; type: in vivo, human; conditions: ITT; for Repeated Measures Pain Intensity on Movement 0-72 Hours, LS Mean: All Timepoints 0-72 hr, LogPad scores only
[2] = test system: subjects undergoing elective outpatient laparoscopic cholecystectomy; assay: Example 17: laparoscopic cholecystectomy study, safety (surgical site and CNS-related adverse reactions, TEAEs); type: in vivo; conditions: for Fatal TEAE: Part 2
Method: In two studies in patients undergoing laparoscopic cholecystectomy, Formulation A or bupivacaine HCl was administered into the laparoscopic port incisions at the end of surgery. In one of these studies, a subset of patients received either Formulation A or saline placebo. In a study of patients undergoing laparoscopically-assisted colectomy, Formulation A or vehicle placebo was administered predominantly into the hand port incision at the end of surgery. In a study of patients undergoing laparotomy, Formulation A or bupivacaine HCl was administered into the full length of the surgical incision at the end of surgery. Table 4.7 and Table 4.8 present, respectively, surgical-site adverse reactions and early-occurring central nervous system (CNS)-related adverse reactions from the laparoscopic cholecystectomy study that included a saline placebo control arm.
The trial included: 1) a randomized, parallel-group, double-blind, placebo-controlled study (Part 1) and a randomized, parallel-group, double-blind, bupivacaine HCl active-controlled study (Part 2). The trial evaluated the efficacy and safety of Formulation A (bupivacaine, benzyl alcohol, sucrose acetate isobutyrate) as a delivery system in subjects undergoing elective outpatient laparoscopic cholecystectomy.
The study was conducted as 2 separate parts (Part 1 and Part 2).
The fascia was closed, as required, prior to instillation of Formulation A. Formulation A was instilled into the incisions via a blunt-tipped syringe-tip applicator just prior to skin closure. After administration, the skin was closed in standard fashion with subcuticular sutures and cyanoacrylate skin adhesive or Steri-Strips™.
In Part 1, subjects randomized to saline-placebo were administered sterile normal saline 5 mL (0.9% sodium chloride injection, USP) by direct instillation into the surgical incisions. The 5 mL of placebo was divided between the 4 ports according to a protocol-specified dosing schedule, to provide coverage of all surgical incisions. The fascia was closed, as required, prior to instillation of the placebo composition. The placebo composition was instilled into the incisions via a blunt-tipped syringe-tip applicator just prior to skin closure. After administration, the skin was closed in standard fashion with subcuticular sutures and cyanoacrylate skin adhesive or Steri-Strips™.
In Part 2, subjects randomized to active control were administered bupivacaine HCl 0.5% 15 mL (75 mg; without epinephrine) by infiltration into the margins of the surgical incisions with a 22 gauge needle. The 15 mL of bupivacaine HCl composition was divided between the 4 ports according to a protocol-specified dosing schedule, to provide coverage of all surgical incisions. The fascia was closed, as required, prior to administration of the bupivacaine HCl active control composition. After infiltration, the skin was closed in standard fashion with subcuticular sutures and cyanoacrylate skin adhesive or Steri-Strips™
There were no fatalities in this trial. […]

[3] = test system: patients undergoing a variety of general surgical procedures; assay: Example 18: safety, Holter monitoring; type: in vivo, human
Description: Patient safety was carefully monitored throughout the trial with traditional assessments of AEs, vital signs, routine laboratory testing, and Holter monitoring (i.e., continuous recording of electrocardiogram) for 3 days after dosing. Special attention was given to cardiovascular and neurological AE, as bupivacaine toxic effects are manifest in those two body systems. In addition, special assessments were done to monitor surgical wound condition and healing over the 30 days of the trial. There were no consistent treatment-related effects on vital signs. Changes in serum chemistry and hematological parameters were those expected after major surgery, with few consistent differences between treatment groups. Cardiac safety was carefully studied using Holter monitoring for 72 hours post-dose, starting about one hour before surgery. In addition, baseline 24-hour ambulatory Holter monitoring was done after the screening visit.

CCCCN1CCCCC1C(=O)Nc1c(C)cccc1C (stereo not shown) [Bupivacaine HCl]
Repeated Measures Pain Intensity on Movement 0-72 Hours, LS Mean ([1]; Cohort 1 (Laparotomy)): 5.9 | Total Morphine-equivalent Opioid Medication Use, MEDD 0-72 hours, Median ([1]; Cohort 1 (Laparotomy)): 63.0 mg | Repeated Measures Pain Intensity on Movement 0-72 Hours, LS Mean ([1]; Cohort 2 (Laparoscopic Cholecystectomy)): 3.6 | Fatal TEAE ([2]; % of subjects): (0.0%) | Fatal TEAE ([2]; number of subjects): 0 | Surgical site: Drainage from surgical incision(s) ([2]; human, in vivo): (4.1%) | Surgical site: Surgical site bleeding ([2]; human, in vivo): (16.2%) | Surgical site: Surgical site infection ([2]; human, in vivo): (0.7%) | Surgical site: Visible bruising ([2]; human, in vivo): (70.9%) | Surgical site: Wound dehiscence ([2]; human, in vivo): (2.0%) | Surgical site: Wound hematoma ([2]; human, in vivo): (1.4%) | Treated subjects with treatment-emergent serious adverse events ([2]; human, in vivo): 3 subjects | Constipation (Constipation), (%) ([2]; human, in vivo, 6 h): (6.8%) | Dizziness (Dizziness), (%) ([2]; human, in vivo, 6 h): (20.9%) | Dysgeusia (Metallic taste in mouth), (%) ([2]; human, in vivo, 6 h): (14.9%) | Headache (Headache), (%) ([2]; human, in vivo, 6 h): (12.2%) | Hypoesthesia (Numbness), (%) ([2]; human, in vivo, 6 h): (0.7%) | Nausea (Nausea), (%) ([2]; human, in vivo, 6 h): (38.5%) | Paresthesia (Tingling), (%) ([2]; human, in vivo, 6 h): (4.1%) | Pruritus (Itching), (%) ([2]; human, in vivo, 6 h): (3.4%) | Somnolence (Drowsiness), (%) ([2]; human, in vivo, 6 h): (32.4%) | Vomiting (Vomiting), (%) ([2]; human, in vivo, 6 h): (10.1%) | At Least One Cardiovascular TEAE ([3]; Cohort 1, % of subjects): (39%) | At Least One Neurological TEAE ([3]; Cohort 1, % of subjects): (22%) | At Least One Non-Opioid TEAE ([3]; Cohort 1, % of subjects): (94%) | At Least One Serious TEAE ([3]; Cohort 1, % of subjects): (22%) | At Least One TEAE ([3]; Cohort 1, % of subjects): (94%) | At Least One Wound Infection TEAE ([3]; Cohort 1, % of subjects): (11%) | Maximum Relationship to Study Drug: Not Related ([3]; Cohort 1, % of subjects): (72%) | Maximum Relationship to Study Drug: Related ([3]; Cohort 1, % of subjects): (22%) | Maximum Severity: Mild ([3]; Cohort 1, % of subjects): (11%) | Maximum Severity: Moderate ([3]; Cohort 1, % of subjects): (61%) | Maximum Severity: Severe ([3]; Cohort 1, % of subjects): (22%) | At Least One Cardiovascular TEAE ([3]; Cohort 1, number of subjects): 7 | At Least One Neurological TEAE ([3]; Cohort 1, number of subjects): 4 | At Least One Non-Opioid TEAE ([3]; Cohort 1, number of subjects): 17 | At Least One Serious TEAE ([3]; Cohort 1, number of subjects): 4 | At Least One Serious and Related TEAE ([3]; Cohort 1, number of subjects): 0 | At Least One Severe and Related TEAE ([3]; Cohort 1, number of subjects): 0 | At Least One TEAE ([3]; Cohort 1, number of subjects): 17 | At Least One TEAE Leading to Study Discontinuation ([3]; Cohort 1, number of subjects): 0 | At Least One Wound Infection TEAE ([3]; Cohort 1, number of subjects): 2 | Deaths ([3]; Cohort 1, number of subjects): 0 | Maximum Relationship to Study Drug: Not Related ([3]; Cohort 1, number of subjects): 13 | Maximum Relationship to Study Drug: Related ([3]; Cohort 1, number of subjects): 4 | Maximum Severity: Mild ([3]; Cohort 1, number of subjects): 2 | Maximum Severity: Moderate ([3]; Cohort 1, number of subjects): 11 | Maximum Severity: Severe ([3]; Cohort 1, number of subjects): 4 | At Least One Cardiovascular TEAE ([3]; Cohort 2, % of subjects): (10%) | At Least One Neurological TEAE ([3]; Cohort 2, % of subjects): (50%) | At Least One Non-Opioid TEAE ([3]; Cohort 2, % of subjects): (95%) | At Least One Serious TEAE ([3]; Cohort 2, % of subjects): (5%) | At Least One Severe and Related TEAE ([3]; Cohort 2, % of subjects): (5%) | At Least One TEAE ([3]; Cohort 2, % of subjects): (100%) | At Least One TEAE Leading to Study Discontinuation ([3]; Cohort 2, % of subjects): (5%) | At Least One Wound Infection TEAE ([3]; Cohort 2, % of subjects): (5%) | Maximum Relationship to Study Drug: Not Related ([3]; Cohort 2, % of subjects): (50%) | Maximum Relationship to Study Drug: Related ([3]; Cohort 2, % of subjects): (50%) | Maximum Severity: Mild ([3]; Cohort 2, % of subjects): (10%) | Maximum Severity: Moderate ([3]; Cohort 2, % of subjects): (65%) | Maximum Severity: Severe ([3]; Cohort 2, % of subjects): (25%) | At Least One Cardiovascular TEAE ([3]; Cohort 2, number of subjects): 2 | At Least One Neurological TEAE ([3]; Cohort 2, number of subjects): 10 | At Least One Non-Opioid TEAE ([3]; Cohort 2, number of subjects): 19 | At Least One Serious TEAE ([3]; Cohort 2, number of subjects): 1 | At Least One Serious and Related TEAE ([3]; Cohort 2, number of subjects): 0 | At Least One Severe and Related TEAE ([3]; Cohort 2, number of subjects): 1 | At Least One TEAE ([3]; Cohort 2, number of subjects): 20 | At Least One TEAE Leading to Study Discontinuation ([3]; Cohort 2, number of subjects): 1 | At Least One Wound Infection TEAE ([3]; Cohort 2, number of subjects): 1 | Deaths ([3]; Cohort 2, number of subjects): 0 | Maximum Relationship to Study Drug: Not Related ([3]; Cohort 2, number of subjects): 10 | Maximum Relationship to Study Drug: Related ([3]; Cohort 2, number of subjects): 10 | Maximum Severity: Mild ([3]; Cohort 2, number of subjects): 2 | Maximum Severity: Moderate ([3]; Cohort 2, number of subjects): 13 | Maximum Severity: Severe ([3]; Cohort 2, number of subjects): 5
